In ChEMBL document CHEMBL5260845, “Flavone-based arylamides as potential anticancers: Design, synthesis and in vitro cell-based/cell-free evaluations” (2020):
Activity calls are given as the source filed them. The calls are words filed in the database; no cut-off is given here.

Tests used:
SR [1] = assay: Antiproliferative activity against human SR cells assessed as cell growth inhibition at 10 uM by SRB assay relative to control; type: functional
K562 [2] = assay: Antiproliferative activity against human K562 cells assessed as cell growth inhibition at 10 uM by SRB assay relative to control; type: functional
UO-31 = assay: Antiproliferative activity against human UO-31 cells assessed as inhibition of cell growth at 10 uM by SRB assay relative to control; type: functional
HOP-92 = assay: Antiproliferative activity against human HOP-92 cells assessed as cell growth inhibition at 10 uM by SRB assay; type: functional, cell-based
RPMI-8226 [3] = assay: Antiproliferative activity against human RPMI-8226 cells assessed as cell growth inhibition at 10 uM by SRB assay relative to control; type: functional
NCI-H226 = assay: Antiproliferative activity against human NCI-H226 cells assessed as cell growth inhibition at 10 uM by SRB assay; type: functional
SF-295 [4] = assay: Antiproliferative activity against human SF-295 cells assessed as cell growth inhibition at 10 uM by SRB assay; type: functional, cell-based
MOLT-4 [5] = assay: Antiproliferative activity against human MOLT-4 cells assessed as cell growth inhibition at 10 uM by SRB assay relative to control; type: functional
HL-60 [6] = assay: Antiproliferative activity against human HL-60 cells assessed as cell growth inhibition at 10 uM by SRB assay relative to control; type: functional
Hs-578T = assay: Antiproliferative activity against human Hs-578T cells assessed as inhibition of cell growth at 10 uM by SRB assay; type: functional, cell-based
NCI-H23 = assay: Antiproliferative activity against human NCI-H23 cells assessed as cell growth inhibition at 10 uM by SRB assay; type: functional
EKVX = assay: Antiproliferative activity against human EKVX cells assessed as cell growth inhibition at 10 uM by SRB assay; type: functional
CCRF-CEM [7] = assay: Antiproliferative activity against human CCRF-CEM cells assessed as cell growth inhibition at 10 uM by SRB assay relative to control; type: functional
NCI-H522 = assay: Antiproliferative activity against human NCI-H522 cells assessed as cell growth inhibition at 10 uM by SRB assay; type: functional, cell-based
786-0 = assay: Antiproliferative activity against human 786-0 cells assessed as inhibition of cell growth at 10 uM by SRB assay relative to control; type: functional
OVCAR-4 = assay: Antiproliferative activity against human OVCAR-4 cells assessed as cell growth inhibition at 10 uM by SRB assay relative to control; type: functional
SK-OV-3 = assay: Antiproliferative activity against human SK-OV-3 cells assessed as inhibition of cell growth at 10 uM by SRB assay relative to control; type: functional
SF-539 = assay: Antiproliferative activity against human SF-539 cells assessed as cell growth inhibition at 10 uM by SRB assay; type: functional, cell-based
SNB-75 [8] = assay: Antiproliferative activity against human SNB-75 cells assessed as cell growth inhibition at 10 uM by SRB assay; type: functional, cell-based
U-251 = assay: Antiproliferative activity against human U-251 cells assessed as cell growth inhibition at 10 uM by SRB assay; type: functional, cell-based
SNB-19 = assay: Antiproliferative activity against human SNB-19 cells assessed as cell growth inhibition at 10 uM by SRB assay; type: functional, cell-based
SF-268 = assay: Antiproliferative activity against human SF-268 cells assessed as cell growth inhibition at 10 uM by SRB assay; type: functional, cell-based
SNB-75 [9] = assay: Antiproliferative activity against human SNB-75 cells assessed as cell growth inhibition at 10 uM by SRB assay relative to control; type: functional
SF-295 [10] = assay: Antiproliferative activity against human SF-295 cells assessed as cell growth inhibition at 10 uM by SRB assay relative to control; type: functional
K562 [11] = assay: Antiproliferative activity against human K562 cells assessed as cell growth inhibition at 10 uM by SRB assay; type: functional, cell-based
[12] = Antiproliferative activity against human hematologic cancer cells assessed as cell growth inhibition at 10 uM by SRB assay relative to control; type: functional
SR [13] = assay: Antiproliferative activity against human SR cells assessed as cell growth inhibition at 10 uM by SRB assay; type: functional, cell-based
MOLT-4 [14] = assay: Antiproliferative activity against human MOLT-4 cells assessed as cell growth inhibition at 10 uM by SRB assay; type: functional, cell-based
[15] = Antiproliferative activity against human colon cancer cells assessed as cell growth inhibition at 10 uM by SRB assay relative to control; type: functional; conditions: Colon carcinoma cell
RPMI-8226 [16] = assay: Antiproliferative activity against human RPMI-8226 cells assessed as cell growth inhibition at 10 uM by SRB assay; type: functional, cell-based
SK-MEL-2 = assay: Antiproliferative activity against human SK-MEL-2 cells assessed as cell growth inhibition at 10 uM by SRB assay relative to control; type: functional; conditions: Homo sapiens, SK-MEL-2, dose 10 µM
T47D = assay: Antiproliferative activity against estrogen receptor positive human T47D cells assessed as inhibition of cell growth at 10 uM by SRB assay relative to control; type: functional
HL-60 [17] = assay: Antiproliferative activity against human HL-60 cells assessed as cell growth inhibition at 10 uM by SRB assay; type: functional, cell-based
Prostatic carcinoma cell = assay: Antiproliferative activity against human prostatic carcinoma cells assessed as cell growth inhibition at 10 uM by SRB assay relative to control; type: functional
CCRF-CEM [18] = assay: Antiproliferative activity against human CCRF-CEM cells assessed as cell growth inhibition at 10 uM by SRB assay; type: functional, cell-based
UACC-62 = assay: Antiproliferative activity against human UACC-62 cells assessed as cell growth inhibition at 10 uM by SRB assay relative to control; type: functional
Malme-3M = assay: Antiproliferative activity against human Malme-3M cells assessed as cell growth inhibition at 10 uM by SRB assay relative to control; type: functional
BT-549 = assay: Antiproliferative activity against triple negative human BT-549 cells assessed as inhibition of cell growth at 10 uM by SRB assay relative to control; type: functional
IGROV-1 = assay: Antiproliferative activity against human IGROV-1 cells assessed as cell growth inhibition at 10 uM by SRB assay relative to control; type: functional
OVCAR-8 = assay: Antiproliferative activity against human OVCAR-8 cells assessed as cell growth inhibition at 10 uM by SRB assay relative to control; type: functional
UACC-257 = assay: Antiproliferative activity against human UACC-257 cells assessed as cell growth inhibition at 10 uM by SRB assay relative to control; type: functional

Row | Compound | inhibition at 10 µM (SR [1]) [%] | inhibition at 10 µM (K562 [2]) [%] | inhibition (UO-31) | inhibition (HOP-92) | inhibition at 10 µM (RPMI-8226 [3]) [%] | inhibition at 10 µM (NCI-H226) [%] | inhibition (SF-295 [4]) | inhibition at 10 µM (MOLT-4 [5]) [%] | inhibition at 10 µM (HL-60 [6]) [%] | inhibition (Hs-578T) | inhibition at 10 µM (NCI-H23) [%] | inhibition at 10 µM (EKVX) [%] | inhibition at 10 µM (CCRF-CEM [7]) [%] | inhibition (NCI-H522) | inhibition (K562 [11]) | inhibition (SR [13]) | inhibition (MOLT-4 [14]) | inhibition (RPMI-8226 [16]) | inhibition at 10 µM (SK-MEL-2) [%] | inhibition (HL-60 [17]) | other results
1 | COc1cc2oc(-c3ccc(NC(=O)c4ccc(C(F)(F)F)cc4)cc3)cc(=O)c2c(OC)c1OC | ≤ 42.6 | ≤ 42.6 | Active | Active | ≤ 42.6 | < 50 | Active | ≤ 42.6 | ≤ 42.6 | Active | < 50 | < 50 | ≤ 42.6 | Active | – | – | – | – | – | – | –
2 | CNC(=O)c1cc(Oc2ccc(NC(=O)Nc3ccc(Cl)c(C(F)(F)F)c3)cc2)ccn1 [SORAFENIB] | – | – | – | – | – | – | – | – | – | – | – | – | – | – | – | – | – | – | – | – | inhibition at 10 µM (786-0): 84.5%
3 | CC(=O)O[C@H]1C(=O)[C@@]2(C)[C@H]([C@H](OC(=O)c3ccccc3)[C@]3(O)C[C@H](OC(=O)[C@H](O)[C@@H](NC(=O)c4ccccc4)c4ccccc4)C(C)=C1C3(C)C)[C@]1(OC(C)=O)CO[C@@H]1C[C@@H]2O [PACLITAXEL] | – | – | – | – | – | – | – | – | – | – | – | – | – | – | – | – | – | – | – | – | inhibition at 10 µM (OVCAR-4): 113%; inhibition at 10 µM (SK-OV-3): 57.1%
4 | COc1cc2oc(-c3ccc(NC(=O)c4cccc(Br)c4)cc3)cc(=O)c2c(O)c1OC | – | – | – | – | 82.6 | – | inactive | – | – | – | – | – | – | – | – | – | – | – | – | – | inhibition (SF-539): inactive; inhibition (SNB-75 [8]): inactive; inhibition (U-251): inactive; inhibition (SNB-19): inactive; inhibition (SF-268): inactive
5 | Cn1nnc2c(C(N)=O)ncn2c1=O [TEMOZOLOMIDE] | – | – | – | – | – | – | – | – | – | – | – | – | – | – | – | – | – | – | – | – | inhibition at 10 µM (SNB-75 [9]): 40.8%; inhibition at 10 µM (SF-295 [10]): 29.8%
6 | COc1cc2oc(-c3ccc(NC(=O)c4ccc(F)cc4)cc3)cc(=O)c2c(OC)c1OC | ≤ 42.6 | ≤ 42.6 | Active | Active | ≤ 42.6 | < 50 | Active | ≤ 42.6 | ≤ 42.6 | Active | < 50 | < 50 | ≤ 42.6 | Active | – | – | – | – | – | – | –
7 | COc1cc2oc(-c3cccc(NC(=O)c4cccc(Br)c4)c3)cc(=O)c2c(O)c1OC | – | – | – | – | 82.6 | – | inactive | – | – | – | – | – | – | – | – | – | – | – | – | – | inhibition (SF-539): inactive; inhibition (SNB-75 [8]): inactive; inhibition (U-251): inactive; inhibition (SNB-19): inactive; inhibition (SF-268): inactive
8 | COc1cc2oc(-c3cccc(NC(=O)c4cccc(Br)c4)c3)cc(=O)c2c(OC)c1OC | – | – | Active | Active | – | < 50 | Active | – | – | Active | < 50 | < 50 | – | Active | Active | Active | Active | Active | ≤ 46 | Active | inhibition at 10 µM [12]: > 50%; inhibition at 10 µM [15]: > 50%; inhibition at 10 µM (T47D): 72.3%; inhibition at 10 µM (Prostatic carcinoma cell): > 50%; inhibition (CCRF-CEM [18]): Active
9 | COc1cc2oc(-c3ccc(NC(=O)c4ccc(Cl)cc4)cc3)cc(=O)c2c(OC)c1OC | ≤ 42.6 | ≤ 42.6 | Active | Active | ≤ 42.6 | < 50 | Active | ≤ 42.6 | ≤ 42.6 | Active | < 50 | < 50 | ≤ 42.6 | Active | – | – | – | – | – | – | –
10 | COc1cc2oc(-c3ccc(NC(=O)c4ccc(C)cc4)cc3)cc(=O)c2c(OC)c1OC | ≤ 42.6 | ≤ 42.6 | Active | Active | ≤ 42.6 | < 50 | Active | ≤ 42.6 | ≤ 42.6 | Active | < 50 | < 50 | ≤ 42.6 | Active | – | – | – | – | ≤ 46 | – | –
11 | COc1cc2oc(-c3cccc(NC(=O)c4ccc(F)cc4)c3)cc(=O)c2c(OC)c1OC | – | – | Active | Active | – | < 50 | Active | – | – | Active | < 50 | < 50 | – | Active | Active | Active | Active | Active | ≤ 46 | Active | inhibition at 10 µM (T47D): 51.3%; inhibition (CCRF-CEM [18]): Active
12 | COc1cc2oc(-c3cccc(NC(=O)c4ccc([N+](=O)[O-])cc4)c3)cc(=O)c2c(OC)c1OC | – | – | Active | Active | – | < 50 | Active | – | – | Active | < 50 | < 50 | – | Active | Active | Active | Active | Active | ≤ 46 | Active | inhibition at 10 µM (OVCAR-4): 57.3%; inhibition at 10 µM (UACC-62): 52.1%; inhibition at 10 µM (Malme-3M): 70.2%; inhibition at 10 µM (BT-549): 77%; inhibition (CCRF-CEM [18]): Active; inhibition at 10 µM (IGROV-1): 57.3%; inhibition at 10 µM (OVCAR-8): 57.3%
13 | COc1cc2oc(-c3cccc(NC(=O)c4ccc(C)cc4)c3)cc(=O)c2c(OC)c1OC | – | – | Active | Active | – | < 50 | Active | – | – | Active | < 50 | < 50 | – | Active | Active | Active | Active | Active | ≤ 46 | Active | inhibition at 10 µM (UACC-62): 50.8%; inhibition (CCRF-CEM [18]): Active; inhibition at 10 µM (UACC-257): 56.1%
